# Laboratory results reported in patent US20210177814A1, “USE OF GUANABENZ OR DERIVATES THEREOF FOR THE TREATMENT OF TYPE I IFN-DEPENDENT PATHOLOGIES” (INSERM (Institut National de la Santé et de la Recherche …, priority 2018, published 2021).
# Biological target: T1, TLR9 (Homo sapiens, UniProt Q9NR96)
# T1 sequence (Q9NR96 26-1032): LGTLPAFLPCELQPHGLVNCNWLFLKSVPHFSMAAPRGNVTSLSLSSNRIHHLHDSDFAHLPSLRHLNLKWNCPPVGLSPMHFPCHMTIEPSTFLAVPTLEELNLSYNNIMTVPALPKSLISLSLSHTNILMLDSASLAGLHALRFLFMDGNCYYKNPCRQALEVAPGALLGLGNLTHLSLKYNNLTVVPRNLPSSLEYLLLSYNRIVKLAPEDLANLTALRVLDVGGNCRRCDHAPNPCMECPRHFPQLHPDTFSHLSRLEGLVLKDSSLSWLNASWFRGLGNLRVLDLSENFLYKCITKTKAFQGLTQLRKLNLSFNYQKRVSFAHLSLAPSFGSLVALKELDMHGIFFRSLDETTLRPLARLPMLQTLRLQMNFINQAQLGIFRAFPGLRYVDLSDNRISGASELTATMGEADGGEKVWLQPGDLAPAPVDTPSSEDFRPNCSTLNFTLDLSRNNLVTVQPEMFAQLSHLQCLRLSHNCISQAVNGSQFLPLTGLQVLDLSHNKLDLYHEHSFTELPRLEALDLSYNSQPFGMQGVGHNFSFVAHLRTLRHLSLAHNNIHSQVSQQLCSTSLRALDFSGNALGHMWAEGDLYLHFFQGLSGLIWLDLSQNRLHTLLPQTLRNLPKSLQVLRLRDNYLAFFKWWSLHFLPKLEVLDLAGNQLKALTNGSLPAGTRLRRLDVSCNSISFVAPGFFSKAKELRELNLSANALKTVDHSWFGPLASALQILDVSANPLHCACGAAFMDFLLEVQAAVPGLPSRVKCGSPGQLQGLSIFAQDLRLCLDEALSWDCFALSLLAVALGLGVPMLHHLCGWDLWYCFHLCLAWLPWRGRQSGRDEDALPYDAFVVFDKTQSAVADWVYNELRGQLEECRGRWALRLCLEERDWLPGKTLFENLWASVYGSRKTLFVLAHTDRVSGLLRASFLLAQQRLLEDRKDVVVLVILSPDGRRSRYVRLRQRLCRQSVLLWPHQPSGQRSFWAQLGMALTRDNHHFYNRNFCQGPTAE
# Assay: Cytokine secretion by human primary blood pDCs activated with CpG ODN 2216 or lupus patient serum
# Format: cell-based
# Set-up: endogenous in cells; host or cells: human primary blood pDCs
# Conditions: 3 μM CpG ODN 2216 or 2% lupus serum, GBZ 50 μM
# Method: FIG. 1: Guanabenz inhibits TLR3 and TLR9 activation in mouse Flt3-L DCs and human blood pDCs. A) Sorted bone marrow derived Flt3L-DCs were activated for 6 h with 10 μg/mL poly I:C LMW (TLR3 in DC1) or 1 μM ODN 1585 (TLR9 in pDCs). GBZ was added at 50 μM and inhibited IFN-β and Interleukin-6 (IL-6) production in activated cells. B) hTLR4, hTLR3, hTLR9 and hTLR7 expressed in the reporter HEK-Blue™ cells are inhibited by GBZ. TLR-expressing HEK-Blue™ cells were respectively activated with 100 ng/mL LPS, 10 μg/mL poly I:C LMW, 2.5 μM ODN 2006 or 5 μg/mL imiquimod, respectively. GBZ was added at 50 μM. TLR activity was measured indirectly through SEAP activity as absorbance at 405 nm. […] Protein concentration of IFN-α and TNF-α secreted were measured at the indicated time points or at 16 h. […]
# Mouse IFN-β quantification in culture supernatant was performed using the Mouse Interferon Beta ELISA kit (PBL InterferonSource); mouse IL-6, TNFα, IL-10, human TNFα and human IFNα were quantified using ELISA kit (eBioscience) respectively, according to manufacturer instructions.
# Given the efficiency of GBZ on mouse TLR3 and TLR9, we turned to human TLRs, in order to extend the relevance of our observations. GBZ-mediated inhibition was first evaluated on NF-kB signaling by monitoring secreted alkaline phosphatase (SEAP) reporter levels in HEK-293 cells expressing TLR3, TLR4, TLR7, TLR9 (FIG. 1B). […]
structure (smiles),measurement,value
"NC(N)=N/N=C/c1c(Cl)cccc1Cl [GBZ, 2-(2,6-dichlorobenzylidene)-hydrazinecarboximidamide]",production of TNF-α,prevented
same,production of type-I IFN (IFN-α),prevented
